Literature values as cited in patent US20110230564A1, “ANT4 INHIBITOR COMPOUNDS AND METHODS OF USE THEREOF” (priority 2008, published 2011).

Test system: sperm
Conditions: 50 μM

CO[C@H](C/C=C\C=C\CC/C=C/C[C@H](C)/C=C/C(=C\C(=O)O)CC(=O)O)/C(C)=C\C=C(/C)C(=O)O [Bongkrekic acid]
sperm motility: almost completely immotile
